Entries after “also recorded” stand apart in the source; their conditions may differ.

Series [1] relates to SF-295 cells. Briefly: XTT cell proliferation assay, SF-295. In kind it is cell-based, human. The following applies: 48 hours. The procedure:
(§1) XTT Cell Proliferation Assay: Cells were seeded into 96-well plates at a density of 2,000 cells/well and allowed to reattach overnight. Cells were treated with SA, synthetic analogs, camptothecin (NCI Chemotherapeutics Repository, Md., USA), or DMSO control at the indicated concentrations continuously for 48 hours followed by assay in the 96-well plate for relative viable cell number using the dye […] (XTT) and a Wallac-Victor 2 plate reader (Perkin-Elmer, Waltham, Mass., USA). Absorbance was determined at 450 nm with 650 nm as a reference reading. Primary astrocytes were additionally assayed at a 96 hour time point.
In general terms: Formazan colour is commonly taken as a measure of viable cells.

The subject of series [2] is NCI 60-cell line panel. Put plainly: NCI 60 cell line assay. In kind it is cell-based, human.
Series [3] concerns MPNST T265 cells. Put plainly: XTT cell proliferation assay, T265. In kind it is cell-based, human. The procedure:
as §1
Cell lines and culture: Human MPNST cell lines (STS26T and T265) were obtained from the Pediatric Oncology Branch, NCI (Bethesda, Md., USA).

Series [4] has as its system Rho. Briefly: Rho GTPase pull-down assay. In kind it is cell-based, mouse. Conditions: EGF pulsed KR158 cells, 12 hrs and 18 hrs. As for the experimental part: Rho GTPase Pull-Down Assay: The Rho pull down assay was obtained from Upstate Biolotech/Millipore (Billerica, Mass., USA, Cat#17-294). KR158 cells were harvested at approximately 80% confluency and seeded at 5×10^5 cells per well in a 6-well plate. After overnight recovery, cells were serum starved in 0.5% FBS for 18 hrs. Cells were then treated with 10 ng/mL EGF either in the presence or the absence of the indicted concentrations of SA for up to 18 hours. At the indicated time points, the cells were lysed according to the manufacturer's protocols. Proteins pulled down by the Rho-GTP binding beads were eluted by SDS, fractionated on a 10% SDS-PAGE gel, and transferred to a nitrocellulose membrane. Pre-pull-down lysates were run in parallel to determine total levels of Rho in each sample. The membrane was probed by an anti Rho antibody.

Series [5] has as its system primary astrocytes from wt, Nf1−/+, and NPcis mice. Put plainly: XTT cell proliferation assay, primary astrocytes. In kind it is cell-based, mouse. Conditions: for inhibition of proliferation: XTT. The procedure: as §1
Cell culture: Primary astrocytes were prepared as described previously (Hawes et al., J. Biomol. Screen, 2008, 13:795-803) from 1 day old neonatal brains collected from wt, Nf1−/+, and Nf1−/+; Trp53−/+ cis mice.

Series [6] concerns empty vector transduced KR158 cells. Put plainly: Cell morphology / actin confocal microscopy, empty vector KR158. In kind it is cell-based, mouse. The procedure: (§2) Constructs and Transfections: NF1-GRD retroviral constructs were obtained from Indiana University. Cells transduced with the NF1-GRD construct or PMSCV empty vector control as previously described (Hiatt et al., J. Biol. Chem., 2001, 276:7240-5) were maintained in 1 μg/mL puromycin (Sigma).
Cell Morphology Assays and Confocal Microscopy: To assay cytoskeleton morphology, KR158 cells, mouse primary astrocytes, KR158 clones expressing the NF1-GRD constructs, K14553 cells, and A549 were seeded to cover slips and allowed to reattach overnight. Cells were treated for 18 hours with either the indicated concentrations of SA, or the vehicle control DMSO. The cover slips were fixed in 3.7% paraformaldehyde, permeablized in 0.1% Triton-X100, and stained with Alexa Fluor 488-phalloidin (Invitrogen, Carlsbad, Calif., USA) to detect actin and cells were mounted in Prolong Antifade containing DAPI (Invitrogen) to stain nuclei. The cells were imaged on a LSM510 confocal microscope (Carl Zeiss Inc., Jena, Germany). For phospho-myosin light chain 2 (MLC) detection, cells were seeded to coverslips as described above. […] Actin structures were monitored continuously over a 16 hr period using confocal microscopy equipped with a growth chamber (37° C., humidified atmosphere and 5% CO2). […]

For series [7], the system named is KR158 cells. Put plainly: MultiTox-Fluor Multiplex Cytotoxicity Assay. In kind it is cell-based, mouse. Conditions: 48 hrs continuous treatment. As for the experimental part:
Cytotoxicity Assay: The MultiTox-Fluor Multiplex Cytotoxicity Assay (Promega, Madison, Wis., USA) was used according to manufacturer instructions. Briefly, KR158 cells were harvested and seeded 2,500 cells/well in a black walled 96-well plate (Corning, Lowell, Mass., USA). Cells were treated with SA or DMSO control at the indicated concentrations continuously for 48 hours followed by addition of the fluorescent substrates from the assay kit. The GF-AFC Substrate enters live cells where it is cleaved by the live-cell protease to release AFC. The bis-AAF-R110 substrate cannot enter live cells but instead is be cleaved by the dead-cell protease activity to release R110.

Series [8] deals with KR158 cells stably transfected with GFP-actin. Briefly: Cell morphology / actin confocal microscopy, KR158 GFP-actin. In kind it is cell-based, mouse. The following applies: 16-18 hrs treatment.
Experimental: Doxorubicin studies: KR158 stably transfected with GFP-actin were treated with 25 and 50 μM doxorubicin for 18 hrs continuously.
Cell Morphology Assays and Confocal Microscopy: To assay cytoskeleton morphology, KR158 cells, mouse primary astrocytes, KR158 clones expressing the NF1-GRD constructs, K14553 cells, and A549 were seeded to cover slips and allowed to reattach overnight. Cells were treated for 18 hours with either the indicated concentrations of SA, or the vehicle control DMSO. The cover slips were fixed in 3.7% paraformaldehyde, permeablized in 0.1% Triton-X100, and stained with Alexa Fluor 488-phalloidin (Invitrogen, Carlsbad, Calif., USA) to detect actin and cells were mounted in Prolong Antifade containing DAPI (Invitrogen) to stain nuclei. The cells were imaged on a LSM510 confocal microscope (Carl Zeiss Inc., Jena, Germany). […] KR158 GFP-actin transfected cells were seeded to 8-well chamber slides, allowed to reattach, and then treated with indicated concentrations of SA. Actin structures were monitored continuously over a 16 hr period using confocal microscopy equipped with a growth chamber (37° C., humidified atmosphere and 5% CO2). To compare SA to Rho/Rock inhibitors, KR158 GFP-actin cells were treated with SA or with the Rho pathway inhibitors Rock inhibitor Y-27632 (Sigma, St. Louis, Mo., USA), and the Rho inhibitor C3 transferase (Cytoskeleton, Inc., Denver, Colo., USA, cat# CT04) for 16 hrs, and then examined by confocal microscopy.
Series [9] concerns KR158 cells transduced with empty vector (PMSCV). Briefly: XTT cell proliferation assay, KR158 empty vector. In kind it is cell-based, mouse. The following applies: two-day cell proliferation assay. As for the experimental part: as §1, §2
Series [10] relates to SF-295 human glioma cells. Briefly: Clonogenic assay, SF-295. In kind it is cell-based. The following applies: 18 hrs treatment, colonies after one week. The procedure:
Clonogenic Assays: Monolayers of cells were treated for 18 hrs with SA, and then harvested, counted, and seeded to 35 mm dishes at a density of 1000 cells per dish. After one week, macroscopic colonies were stained with crystal violet (Sigma, St. Louis, Mo., USA) and counted.

Turning to `CC(C)=CCC/C(C)=C/Cc1c(O)cc(/C=C/c2cc(O)c3c(c2)C[C@@H]2C(C)(C)[C@H](O)[C@H](O)C[C@@]2(C)O3)cc1O` [SA, Schweinfurthin A], the “inhibition of proliferation (percent viability versus control)” value in series [1] was “sensitive; also recorded: inhibited both the KR158 and SF-295 cell lines in a dose dependent manner”; in series [3], “potent inhibition of cell proliferation; also recorded: sensitive”. In addition, in [2], the selectivity came out at 1000 fold. For the same compound, the differential cytotoxicity entry in series [2] (NCI 60-cell line panel) is recorded as “significant differential cytotoxicity”. The Rho activity result in series [4] was “marked inhibition of Rho activity”. The inhibition of proliferation entry is on record as “does not inhibit; also recorded: are not; also recorded: resistant” in series [5] (48 hours), “resistant” in [5] (96 hrs continuous treatment) and “highly active” in [9]. Further, the growth inhibition in [5] (SA concentrations several log-fold higher than the GI50 for KR158) is listed as at most 40%. Further, in series [5] (at concentrations of 1 μM), the “inhibition of Nf1 heterozygous cells” value was “no inhibition”. The F-actin structures result in series [6] is reported as “same reorganization of F-actin structures”. The “cell killing (dead-cell protease activity)” value in series [7] was “dose dependent increase of dead-cell protease activity; also recorded: dose dependent increase in cell killing”. Also, in [8], the “F-actin staining / stress fibers” value is recorded as “dramatic loss of F-actin staining”. The colony growth result in series [10] was “inhibited; also recorded: dramatically restricted”.
